Measured values published in patent US20100184190A1, “Influencing viral lipid constituents” (priority 2006, published 2010).

Tested on: chicken embryo kidney (CEK) cells
Experiment: FTIR microscopy of membrane phase transitions of treated CEK cell membranes
Type: cell-based
Settings: treated versus control
From the text: The hydrophobic pocket of cyclodexrins has the ability to sequester cholesterol from membranes. When membrane cholesterol content was reduced by cyclodextrin treatment, as compared to the control of FIG. 1A, lipid mobility was reduced and the lipids found more ordered, as shown in FIG. 1B.

## cyclodextrin
  change of membrane lipid order / melting groups (FTIR): significant increase in about 45 °C melting lipid ordered groups

## sphingomyelinase
  change of membrane lipid order / melting groups (FTIR): significant reduction in the lower melting groups and a large increase in more ordered high melting membrane lipid groups
